Measurements taken from patent US9763944B2 (Novartis AG, priority 2008, dated 2017).

Conditions: GIST patients, 400 or 600 mg/day oral
Protocol: METHODS: The IM plasma levels were analyzed in a subset of patients (n=73) for whom PK data on day 1 and at steady state (Day 29) was available (n=34 and 39 for 400 and 600 mg/day, respectively). The effect of patients demographics and blood chemistry parameters on IM PK was evaluated using a population PK approach. A relationship between IM plasma exposure and clinical outcome was explored by grouping patients into quartiles according to IM trough levels (Cmin). The clinical outcome parameters evaluated include overall objective responses (OOR=CR+PR+SD), time to progression (TTP), and KIT mutations.

SMILES: Cc1ccc(NC(=O)c2ccc(CN3CCN(C)CC3)cc2)cc1Nc1nccc(-c2cccnc2)n1 [imatinib, N-{5-[4-(4-methyl-piperazino-methyl)-benzoylamido]-2-methylphenyl}-4-(3-pyridyl)-2-pyrimidine-amine]
- inter-patient variability in IM exposure: large inter-patient variability
